Source: patent publication US20110009351A1, “SCREENING ASSAY TO IDENTIFY CORRECTORS OF PROTEIN TRAFFICKING DEFECTS” (Traffick Therepeutics Inc., priority 2007, published 2011)
Counter-ions that a name gives are not always drawn.

How the values were obtained:
Format in all cases: cell-based
[1] = target: T1, ΔF508-CFTR (Homo sapiens, UniProt P13569, DEL508-508); set-up: which was then ligated into full length pNUT-CFTR linearized using Hpa1 and Pml1; expressed in transfected cells
How it was run: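 BHK cells stably expressing 3HA-tagged ΔF508-CFTR (tags in fourth extracellular loop) treated with compound at 20 μM final for 24 h at 37° C. Surface ΔF508-CFTR measured on fixed, non-permeabilised cells by anti-HA/FITC immunofluorescence (488/510 nm), relative to untreated-well background; hits retested in duplicate, intrinsically fluorescent compounds excluded.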

[2] = target: T1, ΔF508-CFTR; assay: iodide efflux assay in CFBE41o− airway epithelial cells; set-up: expressed in transfected cells; host or cells: CFBE41o- (ΔF508/ΔF508) transduced with ΔF508-CFTR, TranzVector lentivirus, provided by J. P. Clancy; conditions: compared with BHK
Description: Experiments were performed by hand or with a robotic liquid handling system (BioRobot 8000, Qiagen, USA) using Qiagen 4.1 software. Cells were cultured in 24-well plates until they reached confluence in order to perform parallel experiments and comparison analysis. After treatment (or not) with a test compound, medium in each well was replaced with 1 ml of iodide loading buffer (in mM: 136 NaI, 3 KNO3, 2 Ca(NO3)2, 11 glucose and 20 Hepes pH 7.4) for 1 hour at 37° C. to permit the I′ to reach equilibrium. […] The loss of intracellular I^− was determined by removing the medium and replacing it with fresh efflux buffer every 1 min for up to 11 min. […] The iodide concentration of each aliquot was determined using an iodide-sensitive electrode (Orion Research Inc., Boston, Mass., USA or Ecomet) and converted to iodide content (i.e. the amount of iodide released during the 1 min interval). […]
Iodide effluxes were performed using a robotic liquid handling system (BioRobot 8000, Qiagen, Valencia, Calif.) and Qiagen 4.1 software. […] Efflux was measured by replacing the medium with 300 μl fresh efflux buffer at 1 min intervals for up to 11 min. […] Iodide concentration was measured in each aliquot (300 μl) using an iodide-sensitive electrode (Orion Research Inc., Boston, Mass.). […]

[3] = target: T1, ΔF508-CFTR; assay: iodide efflux assay in BHK cells expressing ΔF508-CFTR; set-up: which was then ligated into full length pNUT-CFTR linearized using Hpa1 and Pml1; expressed in transfected cells; conditions: 24 h
Description: Experiments were performed by hand or with a robotic liquid handling system (BioRobot 8000, Qiagen, USA) using Qiagen 4.1 software. Cells were cultured in 24-well plates until they reached confluence in order to perform parallel experiments and comparison analysis. After treatment (or not) with a test compound, medium in each well was replaced with 1 ml of iodide loading buffer (in mM: 136 NaI, 3 KNO3, 2 Ca(NO3)2, 11 glucose and 20 Hepes pH 7.4) for 1 hour at 37° C. to permit the I′ to reach equilibrium. At the beginning of each experiment, the loading buffer was removed by aspiration and cells were washed eight times with efflux buffer (same as loading buffer except that NaI was replaced with 136 mM NaNO3) to remove extracellular I^− in each well. The loss of intracellular I^− was determined by removing the medium and replacing it with fresh efflux buffer every 1 min for up to 11 min. The first four aliquots were recovered at 1-minute intervals in an empty 24-well plate and used to establish a stable baseline in efflux buffer alone. A stimulation buffer (efflux buffer containing 50 μM genistein+10 μM forskolin) was then added and sampling continued with replacement by stimulation buffer. The iodide concentration of each aliquot was determined using an iodide-sensitive electrode (Orion Research Inc., Boston, Mass., USA or Ecomet) and converted to iodide content (i.e. the amount of iodide released during the 1 min interval). Curves were constructed by plotting concentration versus time. Data are presented as means±SEM.
Iodide effluxes were performed using a robotic liquid handling system (BioRobot 8000, Qiagen, Valencia, Calif.) and Qiagen 4.1 software. Cells were cultured to confluence in 24-well plates. After treatment (or not) with a test compound, the medium in each well was replaced with 1 ml of iodide loading buffer: 136 mM NaI, 3 mM KNO3, 2 mM Ca(NO3)2, 11 mM glucose, 20 mM Hepes, pH 7.4 with NaOH) and incubated for 1 h at 37° C. At the beginning of each experiment, the loading buffer was removed by aspiration and cells were washed eight times with 300 μl efflux buffer (same as loading buffer except that NaI was replaced with 136 mM NaNO3) to remove extracellular I^−. Efflux was measured by replacing the medium with 300 μl fresh efflux buffer at 1 min intervals for up to 11 min. The first four aliquots were used to establish a stable baseline, then buffer containing 10 μM forskolin+50 μM genistein was used to stimulate CFTR activity. Iodide concentration was measured in each aliquot (300 μl) using an iodide-sensitive electrode (Orion Research Inc., Boston, Mass.). Relative iodide efflux rate was calculated using the difference between maximum (peak) iodide concentration during stimulation and minimum iodide concentration before stimulation (in μM/min). […]

T1 sequence (P13569 with tags, fused parts or gaps DEL508-508): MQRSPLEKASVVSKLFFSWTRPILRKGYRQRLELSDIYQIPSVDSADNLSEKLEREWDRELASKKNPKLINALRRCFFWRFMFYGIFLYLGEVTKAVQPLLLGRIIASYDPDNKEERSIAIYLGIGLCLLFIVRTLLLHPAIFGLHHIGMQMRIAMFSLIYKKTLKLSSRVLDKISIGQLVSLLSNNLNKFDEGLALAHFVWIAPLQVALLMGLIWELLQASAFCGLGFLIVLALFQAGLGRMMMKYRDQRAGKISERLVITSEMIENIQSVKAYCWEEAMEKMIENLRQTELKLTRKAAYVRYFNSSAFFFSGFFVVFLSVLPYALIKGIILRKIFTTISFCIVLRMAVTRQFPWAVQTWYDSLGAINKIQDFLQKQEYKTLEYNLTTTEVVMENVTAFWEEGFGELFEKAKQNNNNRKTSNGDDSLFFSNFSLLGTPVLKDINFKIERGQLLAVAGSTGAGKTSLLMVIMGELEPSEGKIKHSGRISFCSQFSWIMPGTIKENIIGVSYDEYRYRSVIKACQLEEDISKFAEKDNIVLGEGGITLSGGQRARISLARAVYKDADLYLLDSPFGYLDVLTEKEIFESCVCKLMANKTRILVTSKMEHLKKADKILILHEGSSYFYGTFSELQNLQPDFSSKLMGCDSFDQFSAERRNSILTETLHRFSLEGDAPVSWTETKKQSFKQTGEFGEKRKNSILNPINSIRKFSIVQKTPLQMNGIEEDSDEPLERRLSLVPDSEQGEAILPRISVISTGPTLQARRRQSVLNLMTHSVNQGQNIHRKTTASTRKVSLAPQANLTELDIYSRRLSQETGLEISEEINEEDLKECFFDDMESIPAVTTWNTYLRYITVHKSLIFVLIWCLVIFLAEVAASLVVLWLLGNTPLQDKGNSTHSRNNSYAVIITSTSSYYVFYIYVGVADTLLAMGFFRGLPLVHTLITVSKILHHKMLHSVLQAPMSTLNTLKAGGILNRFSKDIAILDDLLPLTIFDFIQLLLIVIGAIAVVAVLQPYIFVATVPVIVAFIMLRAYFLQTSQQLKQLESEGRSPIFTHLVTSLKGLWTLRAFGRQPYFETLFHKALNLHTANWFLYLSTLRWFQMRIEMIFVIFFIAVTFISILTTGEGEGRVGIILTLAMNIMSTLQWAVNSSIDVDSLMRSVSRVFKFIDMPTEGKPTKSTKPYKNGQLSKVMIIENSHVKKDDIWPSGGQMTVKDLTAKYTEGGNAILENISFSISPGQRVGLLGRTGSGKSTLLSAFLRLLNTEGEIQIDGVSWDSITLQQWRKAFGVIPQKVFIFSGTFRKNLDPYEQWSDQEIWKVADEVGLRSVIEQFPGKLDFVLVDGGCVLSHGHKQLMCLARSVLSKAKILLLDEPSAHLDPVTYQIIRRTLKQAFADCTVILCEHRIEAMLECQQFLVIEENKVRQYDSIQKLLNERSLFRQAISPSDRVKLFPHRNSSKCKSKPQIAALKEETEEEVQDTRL

`O=C(OCC(O)CO)c1ccccc1Nc1ccnc2cc(Cl)ccc12` (stereo not drawn) [Glafenine hydrochloride, 2-[(7-chloro-4-quinolinyl)amino]benzoic acid 2,3-dihydroxypropyl ester] was tested, and the “ΔF508-CFTR surface expression increase, normalized to BHK cells expressing wild-type CFTR” value ([1]; 10 μM, 24 h, compared with vehicle alone) was 40%, the “hit in screen (class letter)” value ([1]; Prestwick library, initial corrector assay, BHK cells) was “W (Medium and weak hits were defined as compounds giving a cell fluorescence signal that was between 2 and 3 or 1 and 2 standard deviations, respectively, above untreated control wells)” and the “hit in screen (score)” value ([1]; Prestwick library, initial corrector assay, standard deviations above untreated controls) was 1.3. For the same molecule, the “rescue of iodide efflux” value [2] was “more striking”, the “increase of cAMP-stimulated iodide efflux response” value ([3]; 10 μM, 10 μM forskolin+50 μM genistein, versus vehicle) was 3.3 fold and the “concentration required for significant restoration of ΔF508-CFTR function” value ([3]; iodide efflux, BHK) was 1 to 10 µM.
